Where “and” joins values, the source holds several entries; their conditions need not be identical. Equal values may be shown once.
Columns and labels:
[1] = system: four-vessel occlusion model of rats; assay: Morris water maze Hidden test in four-vessel occlusion model; format: in vivo, rat; conditions: for Hidden test Latency / Hidden test Total distance moved: 4-VO rats; for Hidden test Latency / Hidden test Total distance moved / Time to reach the platform in the Hidden test, in words / Total distance moved in the Hidden test, in words: oral 28 d: arundic acid 30, taltirelin 10, combination 10+3 mg/kg/day; for Hidden test, At the time of grouping Latency: before administration, 1 week after 4-VO; for Time to reach the platform in the Hidden test, in words / Total distance moved in the Hidden test, in words: vs Group 2 control
Description: A Morris water maze test was performed by using a circular pool (168 cm in diameter and 40 cm in depth) filled with water, and a platform (10 cm in diameter and 30 cm in height) for escape of rats. In Zone 3, one transparent plastic escape platform (10 cm in diameter and 30 cm in height) was set at a location 40 cm away from the center of the pool, and […] away from the periphery of the pool. The water temperature of the water maze during the experiment was kept at 23° C. (±1.5° C.). A Hidden test was performed at the time of grouping 1 week after four-vessel occlusion, and on the day following the final administration of test drugs. For the Hidden test, the pool was filled with water to a height of 1 cm above the platform (water depth: 31 cm). A Transfer test was performed 3 days after the final administration of test drugs. For the Transfer test, the platform was removed, and the pool was filled with water to a water depth of 31 cm. To enable the rats to memorize surrounding various spatial arrangements, cues, such as posters and photographs, were placed on the wall. The cues always remained at the same locations during the experiment (FIG. 1: a plan view of Morris water maze, and the laboratory layout).
3) One week after restoration of blood flow, 5 trials of the Hidden test according to the Morris water maze test were performed with intervals of 30 minutes, and a cut-off time of 180 seconds. The rats were grouped by using swimming escape latency (time to reach the platform) as an index. After grouping, oral administration of the drug(s) was started. 4) The drug(s) were orally administered for 28 days. 5) On the day following the final administration of the drug, 5 trials of the Hidden Test for assessing spatial memory by using a water maze were performed with intervals of 30 minutes, and a cut-off time of 180 seconds. After 30 minutes, the platform was removed, and a Transfer test was performed with the pool being filled with water to a water depth of 31 cm.
From the starting point in Zone 1, the rats were thrown into a water maze with their heads being directed toward the outside of the water maze. The location of the platform was fixed at a point (corresponding to E in FIG. 1) on the east side in the water maze (corresponding to Zone 3 in FIG. 1). The maximum time of one trial was 180 seconds. When a rat reached the platform within 180 seconds, the rat was allowed to stand on the platform for 15 seconds. […] This rat was expected to learn the location of the platform by using surrounding various spatial arrangements as cues during the 180 seconds of the Hidden test and 15 seconds of being allowed to stand on the platform (Hidden test). In the Hidden test, swimming trajectory to the goal, swimming distance, swimming escape latency (time to reach the platform), and average swimming speed were measured per trial.
The behaviors of the rats in each trial were automatically analyzed with a CCD camera and the SMART (produced by Kyoto L Giken) behavioral analysis program by binarization of the white color of rats' fur and black ash color of the surrounding area.
Significant differences between the groups in spatial memory according to the Morris water maze method were determined by the nonparametric Dunnett's multiple comparison test. 6) After completion of the Morris water maze test, the brain of each rat was perfusion-fixed with 4% paraformaldehyde. The details are as follows.

[2] = system: four-vessel occlusion model of rats; assay: Morris water maze Transfer test in four-vessel occlusion model; format: in vivo, rat; conditions: 4-VO rats, oral 28 d: arundic acid 30, taltirelin 10, combination 10+3 mg/kg/day; for Residence time in Zone 3: Table 6
Description: The water temperature of the water maze during the experiment was kept at 23° C. […] A Transfer test was performed 3 days after the final administration of test drugs. For the Transfer test, the platform was removed, and the pool was filled with water to a water depth of 31 cm. To enable the rats to memorize surrounding various spatial arrangements, cues, such as posters and photographs, were placed on the wall. The cues always remained at the same locations during the experiment (FIG. 1: a plan view of Morris water maze, and the laboratory layout). Three days after the final administration of the test drug, the platform was removed and a Transfer test in which the pool was filled with water to a water depth of 31 cm was performed. […] Each rat was given only one trial, and the time was 180 seconds. The starting point was on the side opposite to the platform (see FIG. 1). In the Transfer test, the time spent in each Zone and the number of times the rats crossed over the platform location were determined. The behaviors of the rats in each trial were automatically analyzed with a CCD camera and the SMART (produced by Kyoto […]) behavioral analysis program by binarization of the white color of rats' fur and black ash color of the surrounding area. Significant differences between the groups in spatial memory according to the Morris water maze method were determined by the nonparametric Dunnett's multiple comparison test. 6) After completion of the Morris water maze test, the brain of each rat was perfusion-fixed with 4% paraformaldehyde. The details are as follows.

CCCCCC[C@@H](CCC)C(=O)O [Arundic acid, (R)-(−)-2-propyloctanoic acid]
Hidden test Latency ([1]; Mean ± S.E.): 78 ± 5.2 s | Hidden test Total distance moved ([1]; Mean ± S.E.): 17.4 ± 2.1 m | Hidden test, At the time of grouping Latency ([1]; Mean ± S.E.): 102 ± 9.2 s | Hidden test Latency ([1]; individual rat, 3 mg/kg/day): 73.8 s and 82.2 s and 90.3 s and 66.5 s | Hidden test Total distance moved ([1]; individual rat, 3 mg/kg/day): 13.0 m and 15.8 m and 17.9 m and 22.8 m | Hidden test, At the time of grouping Latency ([1]; individual rat): 112.5 s and 86.9 s and 123.2 s and 87 s | Spatial learning capacity and spatial memory capacity in the Morris water maze test, in words ([1]; oral 28 d: arundic acid 30, combination 10+3 mg/kg/day): did not affect spatial learning capacity and spatial memory capacity | Time to reach the platform in the Hidden test, in words [1]: no improvement in time to reach the platform | Total distance moved in the Hidden test, in words [1]: not considered to be significantly improved | Residence time in Zone 1 ([2]; Mean ± S.E.): 41.6 ± 8.7 s | Residence time in Zone 1 (%) ([2]; Mean ± S.E.): 22.8 ± 4.3% | Residence time in Zone 2 ([2]; Mean ± S.E.): 42.0 ± 10.9 s | Residence time in Zone 2 (%) ([2]; Mean ± S.E.): 23.0 ± 5.5% | Residence time in Zone 3 (%) ([2]; Mean ± S.E.): 34.6 ± 5.1% | Residence time in Zone 4 ([2]; Mean ± S.E.): 34.9 ± 83 s | Residence time in Zone 4 (%) ([2]; Mean ± S.E.): 19.6 ± 4.7% | Transfer test Platform Crossing Times ([2]; Mean ± S.E.): 5.5 ± 1.4 | Transfer test Residence time in Zone 3 ([2]; Mean ± S.E.): 62 ± 8.4 s | Residence time in Zone 3 ([2]; Mean ± S.E.): 61.9 ± 8.4 s | Residence time in Zone 3 ([2]; individual rat, 3 mg/kg/day): 82.9 s and 66.0 s and 43.6 s and 55.2 s | Residence time in Zone 1 ([2]; individual rat, 3 mg/kg/day): 24.0 s and 32.5 s and 63.9 s and 45.8 s | Residence time in Zone 1 (%) ([2]; individual rat, 3 mg/kg/day): 13.3% and 19.3% and 33.3% and 25.4% | Residence time in Zone 2 ([2]; individual rat, 3 mg/kg/day): 16.9 s and 34.4 s and 68.2 s and 48.3 s | Residence time in Zone 2 (%) ([2]; individual rat, 3 mg/kg/day): 9.4% and 20.4% and 35.5% and 26.8% | Residence time in Zone 3 (%) ([2]; individual rat, 3 mg/kg/day): 46.0% and 39.1% and 22.7% and 30.6% | Residence time in Zone 4 ([2]; individual rat, 3 mg/kg/day): 56.5 s and 35.7 s and 16.4 s and 31.0 s | Residence time in Zone 4 (%) ([2]; individual rat, 3 mg/kg/day): 31.3% and 21.2% and 8.5% and 17.2% | Transfer test Platform Crossing Times ([2]; individual rat, 3 mg/kg/day): 6 and 9 and 2 and 5

CN1C(=O)C[C@@H](C(=O)N[C@@H](Cc2c[nH]cn2)C(=O)N2CCC[C@H]2C(N)=O)NC1=O [Taltirelin, N-[(4S)-1-methyl-2,6-dioxohexahydropyrimidine-4-carbonyl]-L-histidyl-L-prolinamide]
Hidden test Latency ([1]; Mean ± S.E.): 83 ± 6.6 s | Hidden test Total distance moved ([1]; Mean ± S.E.): 16.1 ± 1.6 m | Hidden test, At the time of grouping Latency ([1]; Mean ± S.E.): 102 ± 8.3 s | Hidden test Latency ([1]; individual rat, 3 mg/kg/day): 68.9 s and 88.1 s and 76.4 s and 99.1 s | Hidden test Total distance moved ([1]; individual rat, 3 mg/kg/day): 19.8 m and 15.0 m and 12.3 m and 17.1 m | Hidden test, At the time of grouping Latency ([1]; individual rat): 100.1 s and 97.2 s and 85.5 s and 124.8 s | Time to reach the platform in the Hidden test, in words [1]: no improvement in time to reach the platform | Total distance moved in the Hidden test, in words [1]: not considered to be significantly improved | Residence time in Zone 1 ([2]; Mean ± S.E.): 39.3 ± 5.4 s | Residence time in Zone 1 (%) ([2]; Mean ± S.E.): 21.7 ± 3.0% | Residence time in Zone 2 ([2]; Mean ± S.E.): 34.2 ± 10.3 s | Residence time in Zone 2 (%) ([2]; Mean ± S.E.): 19.0 ± 5.8% | Residence time in Zone 3 (%) ([2]; Mean ± S.E.): 31.6 ± 2.4% | Residence time in Zone 4 ([2]; Mean ± S.E.): 50.2 ± 8.5 s | Residence time in Zone 4 (%) ([2]; Mean ± S.E.): 27.6 ± 4.6% | Transfer test Platform Crossing Times ([2]; Mean ± S.E.): 5.3 ± 1.4 | Transfer test Residence time in Zone 3 ([2]; Mean ± S.E.): 57 ± 4.1 s | Residence time in Zone 3 ([2]; Mean ± S.E.): 57.1 ± 4.1 s | Residence time in Zone 3 ([2]; individual rat, 3 mg/kg/day): 58.5 s and 66.9 s and 47.1 s and 56 s | Residence time in Zone 1 ([2]; individual rat, 3 mg/kg/day): 24.5 s and 44.4 s and 38.6 s and 49.7 s | Residence time in Zone 1 (%) ([2]; individual rat, 3 mg/kg/day): 13.6% and 24.8% and 21.2% and 27.3% | Residence time in Zone 2 ([2]; individual rat, 3 mg/kg/day): 63 s and 30.4 s and 29.6 s and 14.1 s | Residence time in Zone 2 (%) ([2]; individual rat, 3 mg/kg/day): 35.1% and 17.0% and 16.2% and 7.7% | Residence time in Zone 3 (%) ([2]; individual rat, 3 mg/kg/day): 32.6% and 37.3% and 25.8% and 30.7% | Residence time in Zone 4 ([2]; individual rat, 3 mg/kg/day): 33.6 s and 37.5 s and 67 s and 62.5 s | Residence time in Zone 4 (%) ([2]; individual rat, 3 mg/kg/day): 18.7% and 20.9% and 36.8% and 34.3% | Transfer test Platform Crossing Times ([2]; individual rat, 3 mg/kg/day): 8 and 7 and 4 and 2
